Assay results from patent US20240000741A1, “ALL-TRANS RETINOIC ACID ENHANCES RADIOTHERAPY AND OVERCOMES IMMUNE SUPPRESSION FOR CANCER THERAPY” (The University of Chicago, priority 2022, published 2024).

Key:
[1] = system: MC38 colon carcinoma tumors; assay: MC38 tumor growth after local ablative IR and/or RA; assay type: in vivo, mouse
[2] = system: B16 melanoma tumor model; assay: B16 melanoma tumor growth after IR and RA; assay type: in vivo, mouse; conditions: IR and RA combination compared with single treatments
Method: (§1) 1×10^6 MC38, B16/F1, Renca or CT26 cells were subcutaneously implanted into flanks of mice. Tumors were irradiated using a Phillips IR250 orthovoltage X-ray generator (Phillips, Amsterdam, the Netherlands) operating at 250 kV 15 mA. Subcutaneous local tumors were irradiated by shielding bodies with a cylindrical lead cover with only flank tumors exposed for radiation. ATRA (400 μg/mice/day) was administered by oral gavage for 10 days. For the two-tumor model, 1×10^6 and 0.7×10^6 MC38 cells were subcutaneously implanted into the right and left flank of mice respectively. […] Tumors were measured along two diameters (length and width) and depth twice weekly and volumes were calculated as length×width×depth/2. For CD8 and CD4 T cell depletion experiments, 200 μg antibodies were injected i.p. on day 0, 2, 5 and 8 after radiation. Anti-CD11b antibody was injected i.p. every two days starting 1 day before radiation. Anti-PD-L1 antibody was administered i.p. on day 0, 3, and 7 after radiation at 200 μg/mouse. Anti-IFN-γ was administered i.p. at 500 μg/mouse every 7 days. Anti-NK1.1 antibody was administered via i.p. at 25 μg/mouse every 3 days for 3 doses. Anti-GM-CSF antibody was given by i.p. injection at 250 μg/mouse every 2 days. FTY720 was delivered via gavage at 20 μg per dose every day for 7 days. […]

[3] = system: Renca (a renal cancer tumor model); assay: Renca tumor growth after IR and RA; assay type: in vivo, mouse; conditions: IR and RA combination compared with single treatments
Method: as §1

[4] = system: CT26 (a colon cancer model); assay: CT26 tumor growth after IR and RA (ablative IR); assay type: in vivo, mouse; conditions: IR and RA combination compared with single treatments
Method: as §1

[5] = system: nitrite (iNOS product); assay: Nitrite assay of tumor fragments cultured ex vivo; assay type: in vivo, mouse; conditions: IR+RA treated tumors, day 4, 2 hours culture
Method: Whole tumors were excised at indicated time point post treatment. Tumors were weighed and homogenized in PBS with the presence of protease inhibitor cocktails at a ratio of 1 ml per gram of tissue. 25 μl of supernatants were subjected to a bead-based cytokine and chemokine assay (a mouse inflammation panel and chemokine panel sold under the tradename LEGENDPLEX™ (BioLegend, San Diego, California, United States of America). The assays were analyzed using a LSRII flow cytometer and software sold under the tradename LEGENDPLEX™ (both from BioLegend, San Diego, California, United States of America). IFN-γ was measured using IFN-γ flex CBA set (BD Biosciences, Franklin Lakes, New Jersey, United States of America). TNF-α concentration was measured using ELISA kit from R&D Systems (MTA00B; Minneapolis, Minnesota, United States of America). For nitrite assay, equal weight of tumors were cut into pieces and cultured in DMEM medium for 2 hours. The production of NO in the supernatants was measured indirectly by measuring the concentration of nitrite by using the Griess reagent nitrite measurement kit (Cell Signaling Technology, Danvers, Massachusetts, United States of America; #13547).

[6] = system: CD11b+CD11c+ cells; assay: Quantitative real-time PCR of cells sorted from tumors; assay type: in vivo, mouse
From the text: Total RNA from tumor and CD11c+ cells isolated from tumors with a kit sold under the tradename EASYSEP® Mouse CD11c positive selection kit II (STEMCELL Technologies, Vancouver, Canada) was extracted with a kit sold under the tradename QUICK-RNA® Miniprep Plus kit (R1058, Zymo Research, Irvine, California, United States of America). cDNA was synthesized with a High Capacity cDNA Reverse Transcription kit (4368814, Applied Biosystems, Waltham, Massachusetts, United States of America). Real-time PCR was performed with a kit containing fluorescent chemicals sold under the tradename SYBR™ (Molecular Probes, Sunnyvale, California, United States of America), i.e., the SYBR™ Green PCR Master Mix (4309155, Applied Biosystems, Waltham, Massachusetts, United States of America) and results were normalized to β-actin. Primers used: […]
Relative gene expression was calculated using the 2^−ΔΔCT approach.

[7] = system: MC38 cell antigen-specific CD8+ T cells; assay: ELISPOT assay for IFN-γ-secreting CD8+ T cells; assay type: in vivo, mouse
Method: MC38 cells were irradiated (40 Gy) and cultured overnight. CD8^+ T cells were isolated with EasySep mouse CD8+ positive selection kit (18953, STEMCELL Technologies, Vancouver, Canada) from draining lymph nodes of tumor-bearing mice on day 8 after treatment. 2×10^5 isolated CD8^+ T cells and 2×10^4 irradiated MC38 cells were plated onto 96-well PVDF-backed microplates coated with monoclonal antibody specific for mouse IFN-γ for 72 hours. Spots were developed by following the manufacturer's protocol (BD Biosciences, Franklin Lakes, New Jersey, United States of America).

[8] = system: bone marrow-derived DCs (BMDCs); assay: iNOS induction in bone marrow-derived dendritic cells in vitro; assay type: cell-based, mouse; conditions: cultured in the presence of RA (200 μM)
Method: Femurs and tibias from 8- to 10-week-old mice were harvested. BMDCs were derived as described (40). The cultured BMDC were collected on day 6 for further experiments. For Inf-MAC induction in vitro, bone marrow cells were cocultured with the presence of 200 μM RA. On day 6, indicated amount of IFN-γ was added directly to the culture. Cells were stained for iNOS and TNF-α after 24-36 hours and analyzed using flow cytometry.

[9] = system: MC38 tumor in Rag1−/− mice; conditions: ATRA 400 ug/each oral gavage daily plus X-ray 2 Gy/fraction, three consecutive days
Method: To further study whether T cell responses are important for the antitumor efficacy of ATRA (+) treatment, 2×10^6 MC38 cells were inoculated into the right flanks of Rag1^−/− […] mice, which are deficient of T and B cells. When the tumors reached 100-120 mm^3 in volume, Rag1^−/− mice were administered 400 ug/each ATRA daily via oral gavage followed by 2 Gy/fraction X-ray on three consecutive days. The tumor size was measured with a caliper every day and the tumor volume calculated as 0.5×length×width 2. All of the mice were sacrificed when the control group tumors reached about 2000 mm^3.

[10] = cells sorted from treated tumors
[11] = radiation and RA treatment compared to controls

Compound: CC1=C(/C=C/C(C)=C/C=C/C(C)=C/C(=O)O)C(C)(C)CCC1 [RA, all-trans retinoic acid]
- MC38 tumor growth ([1]; IR (15 Gy) plus RA 400 μg/dose oral gavage, compared to untreated controls or any single treatment): synergistically inhibited tumor growth
- complete tumor regression ([1]; IR (15 Gy) plus RA combination treatment): 17 of 19
- tumor inhibition ([1]; IR with RA administered by i.p. injection): Significant tumor inhibition effects
- tumor inhibition ([1]; IR with RA at a lower dose (200 μg/dose) by oral gavage): Significant tumor inhibition effects
- tumor inhibition ([1]; IR with slow RA-releasing pellets implanted subcutaneously): Significant tumor inhibition effects
- MC38 tumor growth ([1]; IR+RA, tumors grown in Rag1−/− mice, in contrast to wild type mice): did not respond
- survival ([1]; RA alone): ≤ 50 days
- MC38 tumor growth ([1]; RA alone, 400 μg/dose oral gavage): no significant effect
- MC38 tumor growth ([1]; higher dose of RA alone (800 μg/mouse/dose) for 7 days): inhibited
- B16 tumor growth [2]: significant benefit
- Renca tumor growth [3]: significant benefit
- CT26 tumor growth [4]: significant benefit
- nitrite level in culture media of tumors cultured ex vivo [5]: 19.8 µM
- mRNA level of TNF-α in sorted CD11b+CD11c+ cells [6, 10]: increased
- mRNA level of iNOS in sorted CD11b+CD11c+ cells [6, 10]: increased
- transcription of CXCL9 in CD11c+ cells [6, 11]: increased significantly
- transcription of CXCL10 in CD11c+ cells [6, 11]: increased significantly
- transcription of CXCL11 in CD11c+ cells [6, 11]: increased significantly
- tumor antigen-specific CD8+ T cell priming in draining lymph nodes (IFN-γ ELISPOT) ([7]; IR+RA compared to control or single treatments): significantly enhanced
- priming of CD8+ T cells from DLN of non-irradiated tumors (IFN-γ production) ([7]; primary tumor received IR+RA combination treatment): augmented
- iNOS production in BMDCs [8]: increased significantly
- therapeutic effect on MC38 tumors in Rag1−/− mice [9]: did not show any therapeutic effect
